Measured values as given in US12083187B2, “Method of treatment for solid tumors containing hypoxia and/or stroma features” (Wayne State University, priority 2017, dated 2024).
“And” between values parts separate entries of the source, which are not always exact repeats. Equal entries are not always repeated.

Key:
[1] = cited from earlier work
[2] = system: A498 wild type; conditions: for Combination Index (Cl) Drug + CFM4.16: A498 wild type, non-encapsulated drug combined with non-encapsulated CFM4.16, MTT, CompuSyn, CI<1 synergistic
Procedure: (§1) Cell Viability Assays. […] After treatment, an MTT assay was performed.
(§2) In vitro cytotoxicity assay. […] First, the cells were seeded in a 96-well multiwell plate at a density of 5×10^3 cells per well. The cells were allowed to grow in fresh culture media overnight. CAIX-positive and CAIX-negative cells were generated by parallel treatments with hypoxia and normoxia as described above. After 20 h, the medium was removed, and the wells were washed twice with PBS. […] After treatment, an MTT assay was performed.
(§3) RCC is very difficult to treat as the cells are mostly resistant to many current therapies. […] First, we determined cytotoxicity of individual drugs C4.16, Sor, and Evr in both A498. […] In order to understand the safety of combination therapy, we performed the hemolysis assay using CAIX-C4.16 and combination of CAIX-C4.16+Sor.

[3] = system: A498 RCC cell-derived xenografts; assay: A498 RCC cell-derived xenograft efficacy study in SCID mice; assay type: in vivo, mouse; conditions: intravenous, 30 mg/kg/day
Procedure: A dose of 30 mg/kg/day of this preparation was administered by intravenous (tail vein) injections for a total dose of 482 mg/kg in SCID mice bearing […]. […] In addition, after the completion of the animal experiment, tumors from treatment and control groups were dissected, and cryosectioned for imaging of apoptotic signs using TUNEL (Terminal deoxynucleotidyl transferase dUTP nick end labeling) and CARP-1.
For efficacy studies, after a suitable period of acclimation, a suspension of 1×10^6 A498 RCC cells in 200 μl of serum-free Hank's balanced salt solution were subcutaneously implanted in flanks of each animal using a 27-gauge needle. Tumors were allowed to grow unperturbed for 10-14 days. When tumors became palpable (200 mm^3), the mice were randomly assigned to treatment or control groups of eight animals each. […] The end points for assessing antitumor activity consisted of tumor weight, tumor growth inhibition (% T/C), and tumor cell kill Log10. Tumor weight (mg)=(A×B2)/2 where A and B are the tumor length and width (in mm), respectively. Tumor growth inhibition (T/C) was the median tumor weight in the treated group (T) when the median tumor weight in the control group reached 750 mg. Results were expressed as percentage. […] Tumor volumes were calculated by the modified ellipsoidal formula. […]

[4] = system: A498 Everolimus resistant type; conditions: for Combination Index (Cl) Drug + CFM4.16: A498 Everolimus resistant type, drug combined with CFM4.16, MTT, CompuSyn
Procedure: Generation of Everolimus-resistant RCC cells.
as §1, §2, §3

[5] = system: AKT activity (pAKT); assay: Western blot of AKT activation in WT and Evr-res A498 cells; assay type: cell-based, human; conditions: vs untreated control
Procedure: Western Blot analysis. For protein expression analysis, western blot experiments were conducted. The RCC cells were treated with DMSO/Vehicle (Control) for the indicated doses and times of the noted compound, and were lysed to prepare protein extracts. Cells were harvested and lysed in RIPA buffer (50 mM Tris-HCl, pH 8.0, 150 mM sodium chloride, 1.0% NP-40, 0.5% sodium deoxycholate, 0.1% sodium dodecyl sulfate (SDS), and 0.1% of protease inhibitor cocktail) for 20 min at 4° C. The lysates were then centrifuged at 14,000 rpm at 4° C. for 15 min to remove debris. The protein concentrations of whole cell lysates were then determined using the Protein Assay Kit. Supernatant proteins, 50 μg from each sample, were separated by SDS-10% polyacrylamide gel electrophoresis (SDS-PAGE) and transferred to polyvinylidene difluoride (PVDF) membrane (Bio-Rad, Hercules, CA) by standard procedures. The membranes were hybridized with primary antibodies followed by incubation with appropriate secondary antibodies. […]
Mechanism of C4.16 for overcoming drug resistance. In this study, we determined how induction of apoptosis and inhibition of oncogenic survival signaling would reinforce the synergistic cell killing and reversal of drug resistance in VVT and Evr-res A498 cells when treated with CA IX C4.16+Sor. […]

[6] = system: caspase-3/7; assay: Caspase 3/7 assay in Evr-res A498 cells; assay type: cell-based, human; conditions: RCC cells, vs control
[7] = system: OUK262 Everolimus resistant type; assay: MTT / CompuSyn combination index in Everolimus resistant OUK262 RCC cells; conditions: drug combined with CFM4.16
Procedure: (§4) Cell Viability Assays. […] First, 5×10^3 cells were seeded in a 96-well plate in triplicate and allowed to grow in fresh culture media for another 24 h. Cells were then treated with respective agents for the noted doses and times. Control cells were treated with 0.1% DMSO in culture medium. After treatment, an MTT assay was performed. Briefly, 20 μL of 1 mg/ml of MTT was added to each well and cells were incubated for 2-4 h at 37° C. MTT was removed, and the resulting formazan products were dissolved by adding 50 μl DMSO/well followed by colorimetric analysis using a multi-label plate reader at 570 nm (Victor3; PerkinElmer, Wellesley, MA).
(§5) All the clinically drugs were treated in combination with CFM4.16 with a range of concentrations using MTT assay in the specified RCC cell line, and the data were feed to CompuSyn program to obtain the CI-value.

[8] = system: OUK262 wild type; assay: MTT / CompuSyn combination index in OUK262 wild type RCC cells; conditions: drug combined with CFM4.16
Procedure: as §4, §5

[9] = system: Evr-res A498 tumor; conditions: mouse, in vivo
Procedure: In Vivo Imaging Studies. S0456 a reactive near-infra-red fluorochrome, was covalently linked with PLNPs and used for in vivo near-IR optical imaging of selected nanoparticle formulations. The formulations were injected intravenously in female nude mice bearing tumor xenografts. The distribution and tumor targeted delivery were imaged by tracking the fluorescent output of IRDye 800® with in vivo Imaging System (see FIG. 11).
PDX animal imaging and bio-distribution of CAIX-targeted-nanoformulation. A CAIX-targeted-nanomicelles conjugated with Near-infrared dye was administered directly via iv administration to 5-weeks old NCR SCID mice and the distribution behavior in the mice was monitored at different time points after administration using an in vivo imaging system.
To ascertain core penetrating ability of CA IX-S0456 in a drug resistant tumor model, we performed three transverse sectioning of the isolated tumor after the bio-D study.

[10] = system: RCC; conditions: cited from earlier work; for progression free survival: RCC, clinical

Compound	Combination Index (Cl) Drug + CFM4.16 [2]	Combination Index (Cl) Drug + CFM4.16 [7]	Combination Index (Cl) Drug + CFM4.16 [8]	Combination Index (Cl) Drug + CFM4.16 [4]	further results
COc1cc2nccc(Oc3ccc(NC(=O)C4(C(=O)Nc5ccc(F)cc5)CC4)cc3)c2cc1OC [CB, cabozantinib]	–	–	–	–	well tolerated dose ([1]; mouse, in vivo): 60 mg/kg
O=C1N(Cc2ccccc2Cl)c2ccccc2C12NN=C(c1cccc(Cl)c1)S2 (stereo not drawn) [CFM-4.16]	–	–	–	–	growth inhibition (in vitro cytotoxicity, comparison) [2]: more effective in inhibiting growth of WT and Evr-res A498 compared with Sor; tumor growth / tumor size [3]: failed to inhibit tumor growth; growth inhibition (in vitro cytotoxicity, comparison) [4]: more effective in inhibiting growth of WT and Evr-res A498 compared with Sor; AKT activity (pAKT) [5]: downregulation of pAKT; loss in body weight ([1]; 30 mg/kg/day iv, total dose 482 mg/kg, DMSO/cremophor preparation, SCID mice): < 2% and 1.6%; MTD ([1]; mouse, in vivo): 30 mg/kg; caspase-3/7 activity [6]: induced caspase-3/7 activation
CC(C)(C)c1nc(-c2cccc(NS(=O)(=O)c3c(F)cccc3F)c2F)c(-c2ccnc(N)n2)s1 [Dabrafenib]	0.1385	0.587	0.234	0.677	–
CO[C@H]1C[C@@H]2CC[C@@H](C)[C@@](O)(O2)C(=O)C(=O)N2CCCC[C@H]2C(=O)O[C@H]([C@H](C)C[C@@H]2CC[C@@H](OCCO)[C@H](OC)C2)CC(=O)[C@H](C)/C=C(\C)[C@@H](O)[C@@H](OC)C(=O)[C@H](C)C[C@H](C)/C=C/C=C/C=C/1C [Everolimus]	0.7	1.45	0.67	1.3	growth inhibition (in vitro cytotoxicity, comparison) [4]: did not inhibit growth
O=C(c1cc(Cc2n[nH]c(=O)c3ccccc23)ccc1F)N1CCN(C(=O)C2CC2)CC1 [Olaparip]	1.0978	1.312	0.9878	1.121	–
CC(=O)c1c(C)c2cnc(Nc3ccc(N4CCNCC4)cn3)nc2n(C2CCCC2)c1=O [Palbociclib]	0.7	1.0023	0.897	0.971	–
CC1(C)C(/C=C/C2=C(Cl)C(=C/C=C3/N(CCCCS(=O)(=O)[O-])c4ccc(S(=O)(=O)[O-])cc4C3(C)C)/CCC2)=[N+](CCCCS(=O)(=O)[O-])c2ccc(S(=O)(=O)[O-])cc21.[Na+].[Na+].[Na+] [S0456]	–	–	–	–	tumor accumulation / selectivity [9]: poor tumor accumulation with high off-target activity
CNC(=O)c1cc(Oc2ccc(NC(=O)Nc3ccc(Cl)c(C(F)(F)F)c3)cc2)ccn1 [Sorafenib]	–	–	–	–	progression free survival [10]: 12 months; AKT activity (pAKT) [5]: downregulation of pAKT
Nivolumab: immune-check point inhibitor (anti-PD1) approved for RCC	–	–	–	–	response rate, higher than Evr ([10]; RCC patients): 5%; progression free survival [10]: 32 months
